Legend:
[1] = Lung and plasma pharmacokinetics in mice; assay type: in vivo, mouse; conditions: BALB/c mice
Method: Plasma and lung concentrations of compound 1 and ratios thereof were determined in the following manner. BALB/c mice from Charles River Laboratories were used in the assay. Compound 1 was formulated in 20% propylene glycol in citrate buffer (pH 4) at a concentration of 0.324 mg/mL as a solution. 50 μL of the solution formulation was introduced into the trachea of a mouse by oral aspiration. At various time points (0.167, 2, 6 hr) post dosing, blood samples were removed via cardiac puncture and intact lungs were excised from the mice. Blood samples were centrifuged (Eppendorf centrifuge, 5804R) for 4 minutes at approximately 12,000 rpm at 4° C. to collect plasma. Lungs were padded dry, weighed, and homogenized in 0.6 mL sterile water. Plasma and lung concentrations of compound 1 were determined by LC-MS analysis against analytical standards constructed into a standard curve in the test matrix. […] The lung-to-plasma ratio was determined as the ratio of the lung AUC in μg hr/g to the plasma AUC in μg hr/mL (where AUC is conventionally defined as the area under the curve of test compound concentration vs. time).

[2] = system: IL-2/anti-CD3 stimulated IFNγ in human PBMCs; test: Inhibition of IL-2/anti-CD3 stimulated IFNγ in human PBMCs; assay type: cell-based; conditions: PBMC, 24 h stimulation, ELISA, read-out: pIC50, inhibition of IL-2/anti-CD3 stimulated IFNγ (converted)
Method: The potency of the test compound for inhibition of interleukin-2 (IL-2)/anti-CD3 stimulated interferon gamma (IFNγ) was measured in human peripheral blood mononuclear cells (PBMCs) isolated from human whole blood (Stanford Blood Center). Because IL-2 signals through JAK, this assay provides a measure of JAK cellular potency.
(1) Human peripheral blood mononuclear cells (PBMC) were isolated from human whole blood of healthy donors using a ficoll gradient. Cells were cultured in a 37° C., 5% CO2 humidified incubator in RPMI (Life Technologies) supplemented with 10% Heat Inactivated Fetal Bovine Serum (FBS, Life Technologies), 2 mM Glutamax (Life Technologies), 25 mM HEPES (Life Technologies) and 1× Pen/Strep (Life Technologies). Cells were seeded at 200,000 cells/well in media (50 μL) and cultured for 1 h. The compound was serially diluted in DMSO and then diluted another 500-fold (to a 2× final assay concentration) in media. […]
(2) After cytokine stimulation, cells were centrifuged at 500 g for 5 min and supernatants removed and frozen at −80° C. To determine the inhibitory potency of test compounds in response to IL-2/anti-CD3, supernatant IFNγ concentrations were measured via ELISA (R&D Systems). IC50 values were determined from analysis of the inhibition curves of concentration of IFNγ vs compound concentration. Data are expressed as pIC50 (negative decadic logarithm IC50) values.

Tyk2 = target: T1, Tyk2 (Homo sapiens, UniProt P29597); test: Biochemical JAK kinase assay (LanthaScreen), Tyk2; conditions: converted from pIC50 by Cheng-Prusoff; 10 μM ATP; read-out: Tyk 2 pKi (converted)
T1 construct: GST; purchased Life Technologies
Method: A panel of four LanthaScreen JAK biochemical assays (JAK1, 2, 3 and Tyk2) were carried in a common kinase reaction buffer (50 mM HEPES, pH 7.5, 0.01% Brij-35, 10 mM MgCl2, and 1 mM EGTA). Recombinant GST-tagged JAK enzymes and a GFP-tagged STAT1 peptide substrate were obtained from Life Technologies.
Serially diluted compound was pre-incubated with each of the four JAK enzymes and the substrate in white 384-well microplates (Corning) at ambient temperature for 1 h. ATP was subsequently added to initiate the kinase reactions in 10 μL total volume, with 1% DMSO. […] The plates were allowed to incubate at ambient temperature for 1 h before being read on the EnVision reader (Perkin Elmer). Emission ratio signals (520 nm/495 nm) were recorded and utilized to calculate the percent inhibition values based on DMSO and background controls.
For dose-response analysis, percent inhibition data were plotted vs. compound concentrations, and IC50 values were determined from a 4-parameter robust fit model with the Prism software (GraphPad Software). Results were expressed as pIC50 (negative logarithm of IC50) and subsequently converted to pKi (negative logarithm of dissociation constant, Ki) using the Cheng-Prusoff equation.

SLK = target: T2, SLK (Homo sapiens, UniProt Q9H2G2); test: Kinome screen, SLK; assay type: binding; conditions: screened at 1 μM
T2 construct: made in house; host or cells: E. coli BL21-derived host (T7 phage) or HEK-293 cells
Method: (§1) Compounds 1 and C-1 were screened against other kinases to evaluate their selectivity profile.
(§2) Kinase-tagged T7 phage strains were grown in parallel in 24-well blocks in an E. coli host derived from the BL21 strain. E. coli were grown to log-phase and infected with T7 phage from a frozen stock (multiplicity of infection=0.4) and incubated with shaking at 32° C. until lysis (90-150 minutes). The lysates were centrifuged (6,000×g) and filtered (0.2 μm) to remove cell debris. The remaining kinases were produced in HEK-293 cells and subsequently tagged with DNA for qPCR detection.
(§3) Streptavidin-coated magnetic beads were treated with biotinylated small molecule ligands for 30 minutes at room temperature to generate affinity resins for kinase assays. The liganded beads were blocked with excess biotin and washed with blocking buffer (SeaBlock (Pierce), 1% BSA, 0.05% Tween 20, 1 mM DTT) to remove unbound ligand and to reduce non-specific phage binding. Binding reactions were assembled by combining kinases, liganded affinity beads, and test compounds in 1× binding buffer (20% SeaBlock, 0.17×PBS, 0.05% Tween 20, 6 mM DTT). Test compounds were prepared as 40× stocks in 100% DMSO and directly diluted into the assay. All reactions were performed in polypropylene 384-well plates in a final volume of 0.04 ml. […] The kinase concentration in the eluates was measured by qPCR. […]

CDK7 = target: T3, CDK7 (Homo sapiens, UniProt P50613); test: Kinome screen, CDK7; assay type: binding; conditions: screened at 1 μM
T3 construct: made in house; host or cells: E. coli BL21-derived host (T7 phage) or HEK-293 cells
Method: as §1, §2, §3

T1 sequence (P29597 whole entry): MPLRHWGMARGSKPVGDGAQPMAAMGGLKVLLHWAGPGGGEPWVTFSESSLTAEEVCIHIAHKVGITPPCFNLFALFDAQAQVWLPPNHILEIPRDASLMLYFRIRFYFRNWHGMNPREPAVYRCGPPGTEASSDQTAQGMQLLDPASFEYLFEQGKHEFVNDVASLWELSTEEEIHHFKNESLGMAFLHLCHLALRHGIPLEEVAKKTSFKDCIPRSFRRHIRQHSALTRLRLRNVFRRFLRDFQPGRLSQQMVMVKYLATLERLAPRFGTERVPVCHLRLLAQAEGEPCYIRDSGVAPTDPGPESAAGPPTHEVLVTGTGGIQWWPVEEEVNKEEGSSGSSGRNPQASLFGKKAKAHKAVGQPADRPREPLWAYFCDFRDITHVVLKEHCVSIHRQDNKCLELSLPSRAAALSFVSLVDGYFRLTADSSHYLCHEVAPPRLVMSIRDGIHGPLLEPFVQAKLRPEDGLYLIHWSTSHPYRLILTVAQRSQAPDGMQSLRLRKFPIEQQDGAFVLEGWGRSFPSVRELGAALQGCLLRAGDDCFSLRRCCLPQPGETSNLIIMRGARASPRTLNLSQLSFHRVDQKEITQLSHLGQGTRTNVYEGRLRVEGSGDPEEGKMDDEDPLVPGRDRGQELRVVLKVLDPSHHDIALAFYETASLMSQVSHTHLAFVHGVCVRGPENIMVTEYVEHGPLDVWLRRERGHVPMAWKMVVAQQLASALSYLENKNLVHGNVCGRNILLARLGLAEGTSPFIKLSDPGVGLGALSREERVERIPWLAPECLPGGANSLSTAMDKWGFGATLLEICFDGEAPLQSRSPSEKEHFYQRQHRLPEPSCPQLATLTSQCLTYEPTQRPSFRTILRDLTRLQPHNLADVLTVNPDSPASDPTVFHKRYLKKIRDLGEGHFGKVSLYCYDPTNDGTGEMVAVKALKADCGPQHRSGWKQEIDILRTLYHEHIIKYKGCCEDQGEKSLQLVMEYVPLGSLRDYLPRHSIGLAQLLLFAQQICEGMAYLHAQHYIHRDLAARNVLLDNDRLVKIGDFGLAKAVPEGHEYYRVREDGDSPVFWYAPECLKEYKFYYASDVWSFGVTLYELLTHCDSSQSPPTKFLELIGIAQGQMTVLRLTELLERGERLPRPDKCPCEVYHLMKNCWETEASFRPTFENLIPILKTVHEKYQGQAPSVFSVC
T2 sequence (Q9H2G2 whole entry): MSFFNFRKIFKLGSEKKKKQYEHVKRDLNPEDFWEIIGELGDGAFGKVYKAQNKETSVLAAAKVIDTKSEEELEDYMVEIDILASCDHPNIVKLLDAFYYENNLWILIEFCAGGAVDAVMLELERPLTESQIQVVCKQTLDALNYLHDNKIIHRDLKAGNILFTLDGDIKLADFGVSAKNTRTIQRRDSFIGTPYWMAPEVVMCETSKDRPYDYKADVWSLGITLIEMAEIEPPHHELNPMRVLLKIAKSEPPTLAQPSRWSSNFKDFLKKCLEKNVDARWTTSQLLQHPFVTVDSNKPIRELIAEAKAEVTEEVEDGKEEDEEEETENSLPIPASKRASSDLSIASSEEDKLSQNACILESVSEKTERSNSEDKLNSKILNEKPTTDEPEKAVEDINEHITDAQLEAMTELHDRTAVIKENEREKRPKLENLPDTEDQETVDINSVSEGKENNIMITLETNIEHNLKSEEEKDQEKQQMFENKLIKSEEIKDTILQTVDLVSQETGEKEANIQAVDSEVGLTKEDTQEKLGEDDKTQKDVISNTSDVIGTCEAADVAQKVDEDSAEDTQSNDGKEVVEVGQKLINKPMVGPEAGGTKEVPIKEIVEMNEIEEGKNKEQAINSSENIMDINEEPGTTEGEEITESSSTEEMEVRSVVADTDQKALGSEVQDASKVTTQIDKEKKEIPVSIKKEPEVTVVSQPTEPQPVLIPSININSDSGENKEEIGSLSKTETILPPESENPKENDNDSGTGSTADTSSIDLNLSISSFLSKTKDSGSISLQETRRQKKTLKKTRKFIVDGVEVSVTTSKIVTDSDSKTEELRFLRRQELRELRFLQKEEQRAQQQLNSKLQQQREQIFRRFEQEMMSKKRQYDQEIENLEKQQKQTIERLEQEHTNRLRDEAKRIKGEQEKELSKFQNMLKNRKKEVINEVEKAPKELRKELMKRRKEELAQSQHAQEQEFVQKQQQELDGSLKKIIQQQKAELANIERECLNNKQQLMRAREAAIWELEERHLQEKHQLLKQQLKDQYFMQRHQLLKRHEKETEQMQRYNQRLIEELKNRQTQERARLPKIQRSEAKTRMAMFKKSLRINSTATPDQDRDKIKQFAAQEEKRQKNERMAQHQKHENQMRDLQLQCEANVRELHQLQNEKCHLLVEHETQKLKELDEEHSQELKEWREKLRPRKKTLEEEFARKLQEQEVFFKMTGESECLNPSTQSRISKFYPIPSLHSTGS
T3 sequence (P50613 whole entry): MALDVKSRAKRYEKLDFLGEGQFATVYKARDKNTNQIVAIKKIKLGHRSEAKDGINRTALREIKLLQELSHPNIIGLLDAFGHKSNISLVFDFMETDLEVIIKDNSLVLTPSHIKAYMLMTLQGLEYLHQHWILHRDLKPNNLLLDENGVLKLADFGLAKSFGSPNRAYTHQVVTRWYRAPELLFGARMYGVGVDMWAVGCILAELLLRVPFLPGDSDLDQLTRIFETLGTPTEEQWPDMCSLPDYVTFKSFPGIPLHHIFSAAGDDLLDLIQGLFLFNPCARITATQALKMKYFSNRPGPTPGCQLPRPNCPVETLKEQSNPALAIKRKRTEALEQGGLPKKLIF

## CCc1cc(O)c(F)cc1-c1cc(F)c2c(-c3nc4c([nH]3)CCN(C(=O)[C@]35C[C@H]3CCN5)C4)n[nH]c2c1 [Compound 1, (1S,5R)-2-azabicyclo[3.1.0]hexan-1-yl(2-(6-(2-ethyl-5-fluoro-4-hydroxyphenyl)-4-fluoro-1H-indazol-3-yl)-6,7-dihydro-3H-imidazo[4,5-c]pyridin-5(4H)-yl)methanone]
[1]; oral aspiration of 50 μL of 0.324 mg/mL solution
  lung AUC (0-6 hr): 43.5 µg·h/g
[1]; mouse, 16.2 µg/mouse, oral aspiration, lung AUC in μg hr/g to plasma AUC in μg hr/mL, read-out: lung-to-plasma AUC ratio
  Kp: 59.6
[2]
  IC50: 200 nM
Tyk2
  Ki: 2.51 nM
SLK
  inhibition at 1 µM: 100%
CDK7
  inhibition at 1 µM: 82%

Reference: patent US10968222B2, “2-azabicyclo hexane JAK inhibitor compound” (THERAVANCE BIOPHARMA R&D IP, LLC, priority 2018, dated 2021)
